The target of test [1] is T1, rat lens aldose reductase (RLAR) (Rattus norvegicus, UniProt P07943).
T1 construct: from tissue; host or cells: lens of Sprague-Dawley rats (supernatant of homogenate)
Kind of test: RLAR inhibitory activity assay (rat lens homogenate, DL-glyceraldehyde substrate). The class given is biochemical. The conditions noted are these: for RLAR inhibitory activity (in words): at the concentrations tested. As for the experimental part:
A rat lens homogenate was prepared with minor modifications according to the method reported by Hayman et al.. Briefly, the lenses were removed from the eyes of Sprague-Dawley rats weighing 250–280 g. They were homogenized in sodium phosphate buffer (pH 6.2) that was prepared with dibasic sodium phosphate (Na2HPO4∙H2O, 0.66 g) and monobasic sodium phosphate (NaH2PO4∙H2O, 1.27 g) in 100 mL of double-distilled H2O. The homogenate was clarified by centrifugation at 10,000 rpm at 4 °C for 20 min and the resultant supernatant was frozen until use. A crude AR homogenate with a specific activity of 6.5 U/mg was used in all enzyme inhibition evaluations. The reaction solution consisted of 620 µL of 100 mM sodium phosphate buffer (pH 6.2), 90 µL of AR homogenate, 90 µL of 1.6 mM NADPH, and 9 µL of sample, while the substrate included 90 µL of 50 mM DL-glyceraldehyde. […] AR activity was determined by measuring the decrease in NADPH absorption at 340 nm over a 4 min period on an Ultrospec®2100pro UV/Visible spectrophotometer. SWIFT II Applications software (Amersham Biosciences, NJ, USA) was used for all data analyses. The inhibition percentage (%) was calculated as follows in Equation (1):[1 − (∆Asample/min − ∆Ablank/min)/(∆Acontrol/min − ∆Ablank/min)] × 100(1) in which ∆Asample/min represents the test sample and substrate’s reduction in absorbance over 4 min, and ∆A control/min represents the same reduction in absorbance, but with 100% DMSO (dimethyl sulfoxide) rather than the test sample.

Test [2] addresses T2, human recombinant aldose reductase (HRAR) (Homo sapiens, UniProt P15121).
T2 construct: purchased Wako Chemicals (Osaka, Japan)
Kind of test: HRAR inhibition assay (DL-glyceraldehyde substrate). The class given is biochemical. To be noted: for HRAR inhibitory activity (in words): at the concentrations tested. As to the method: HRAR inhibition was studied according to Nishimura et al.. AR action was studied by measuring the reduction in NADPH absorption at 340 nm over a period of 1 min on a UV/visible spectrophotometer (Ultrospec®2100pro, Biochrom, Holliston, MA, USA). For HRAR inhibition, the HRAR enzyme (0.4 units), was used in all enzyme inhibition evaluations. […] The inhibition percentage (%) was measured as designated in the RLAR assay. The DA sample/min value characterizes the decrease in absorbance for 1 min with the test samples and substrate. The ability of each sample to inhibit HRAR was observed as an IC50 value (µM) and measured from the log-dose inhibition curve.

The test system of test [3] is sorbitol accumulation in rat lens. Kind of test: Lens culture and intracellular sorbitol measurement (ex vivo). It is filed as cell-based, Sprague-Dawley rats. The conditions noted are these: 25 mM glucose, 6 days, sample 5 μg/mL, mean ± SD (n = 3).
Where [4] appears, read: rat lens homogenate, substrate DL-glyceraldehyde, mean ± S.E.M. of triplicate experiments, read-out: RLAR IC50.
The mark [5] stands for this setting: substrate DL-glyceraldehyde, mean ± S.E.M. of triplicate experiments, read-out: HRAR IC50.

The values that follow come from publication PMC9000482, “Inhibition of Aldose Reductase by Ginsenoside Derivatives via a Specific Structure Activity Relationship with Kinetics Mechanism and Molecular Docking Study” (Molecules, 2022).

Read-outs that look alike come from different tables or passages of the source. Marks after values point to notes of the source that are not given here.

For `CC(C)=CCC[C@](C)(O[C@@H]1O[C@H](CO[C@@H]2OC[C@H](O[C@@H]3OC[C@@H](O)[C@H](O)[C@H]3O)[C@H](O)[C@H]2O)[C@@H](O)[C@H](O)[C@H]1O)[C@H]1CC[C@]2(C)[C@@H]1[C@H](O)C[C@@H]1[C@@]3(C)CC[C@H](O[C@@H]4O[C@H](CO)[C@@H](O)[C@H](O)[C@H]4O[C@@H]4O[C@H](CO)[C@@H](O)[C@H](O)[C@H]4O)C(C)(C)[C@@H]3CC[C@]12C` [Ginsenoside Ra1], the “RLAR inhibitory activity (in words)” value in test [1] is “inactive”. Besides, the IC50 in test [1] (setting [4]) is > 200 µM; in test [2] (setting [5]), 75.6 ± 4.33 µM.

As to `CC(C)=CCC[C@](C)(O[C@@H]1O[C@H](CO[C@@H]2O[C@@H](CO)[C@H](O)[C@H]2O[C@@H]2OC[C@@H](O)[C@H](O)[C@H]2O)[C@@H](O)[C@H](O)[C@H]1O)[C@H]1CC[C@]2(C)[C@@H]1[C@H](O)C[C@@H]1[C@@]3(C)CC[C@H](O[C@@H]4O[C@H](CO)[C@@H](O)[C@H](O)[C@H]4O[C@@H]4O[C@H](CO)[C@@H](O)[C@H](O)[C@H]4O)C(C)(C)[C@@H]3CC[C@]12C` [Ginsenoside Ra2], the IC50 in test [1] (setting [4]) stood at 178 ± 7.39 µM; in test [2] (setting [5]), 82.43 ± 0.44 µM.

`CC(C)=CCC[C@](C)(O[C@@H]1O[C@H](CO[C@@H]2O[C@H](CO)[C@@H](O)[C@H](O)[C@H]2O)[C@@H](O)[C@H](O)[C@H]1O)[C@H]1CC[C@]2(C)[C@@H]1[C@H](O)C[C@@H]1[C@@]3(C)CC[C@H](O[C@@H]4O[C@H](CO)[C@@H](O)[C@H](O)[C@H]4O[C@@H]4O[C@H](CO)[C@@H](O)[C@H](O)[C@H]4O)C(C)(C)[C@@H]3CC[C@]12C` [Ginsenoside Rb1]: the IC50 in test [1] (setting [4]) is 103 ± 7.45 µM; in test [2] (setting [5]), 93.3 ± 5.76 µM.

On to `CC(C)=CCC[C@](C)(O[C@@H]1O[C@H](CO[C@@H]2OC[C@H](O)[C@H](O)[C@H]2O)[C@@H](O)[C@H](O)[C@H]1O)[C@H]1CC[C@]2(C)[C@@H]1[C@H](O)C[C@@H]1[C@@]3(C)CC[C@H](O[C@@H]4O[C@H](CO)[C@@H](O)[C@H](O)[C@H]4O[C@@H]4O[C@H](CO)[C@@H](O)[C@H](O)[C@H]4O)C(C)(C)[C@@H]3CC[C@]12C` [Ginsenoside Rb2], for which the IC50 in test [1] (setting [4]) was 121 ± 3.43 µM; in test [2] (setting [5]) it was > 100 µM. In addition, the “HRAR inhibitory activity (in words)” value in test [2] is “inactive”.

Consider `CC(C)=CCC[C@](C)(O[C@@H]1O[C@H](CO[C@@H]2OC[C@@H](O)[C@H](O)[C@H]2O)[C@@H](O)[C@H](O)[C@H]1O)[C@H]1CC[C@]2(C)[C@@H]1[C@H](O)C[C@@H]1[C@@]3(C)CC[C@H](O[C@@H]4O[C@H](CO)[C@@H](O)[C@H](O)[C@H]4O[C@@H]4O[C@H](CO)[C@@H](O)[C@H](O)[C@H]4O)C(C)(C)[C@@H]3CC[C@]12C` [Ginsenoside Rb3], for which the IC50 in test [1] (setting [4]) came to 117 ± 6.89 µM; in test [2] (setting [5]), 79 ± 4.55 µM.

For `CC(C)=CCC[C@](C)(O[C@@H]1O[C@H](CO[C@@H]2O[C@@H](CO)[C@H](O)[C@H]2O)[C@@H](O)[C@H](O)[C@H]1O)[C@H]1CC[C@]2(C)[C@@H]1[C@H](O)C[C@@H]1[C@@]3(C)CC[C@H](O[C@@H]4O[C@H](CO)[C@@H](O)[C@H](O)[C@H]4O[C@@H]4O[C@H](CO)[C@@H](O)[C@H](O)[C@H]4O)C(C)(C)[C@@H]3CC[C@]12C` [Ginsenoside Rc], in test [1], the “RLAR inhibitory activity (in words)” value was “inactive”. The half-maximal inhibitory concentration (IC50) was > 200 µM in test [1] (setting [4]) and 56.6 ± 2.19 µM in test [2] (setting [5]).

Turning to `CC(C)=CCC[C@](C)(O[C@@H]1O[C@H](CO)[C@@H](O)[C@H](O)[C@H]1O)[C@H]1CC[C@]2(C)[C@@H]1[C@H](O)C[C@@H]1[C@@]3(C)CC[C@H](O[C@@H]4O[C@H](CO)[C@@H](O)[C@H](O)[C@H]4O[C@@H]4O[C@H](CO)[C@@H](O)[C@H](O)[C@H]4O)C(C)(C)[C@@H]3CC[C@]12C` [Ginsenoside Rd], the IC50 in test [1] (setting [4]) was found to be 89.6 ± 2.99 µM; in test [2] (setting [5]), 37.5 ± 1.33 µM.

Take `CC(C)=CCC[C@](C)(O[C@@H]1O[C@H](CO)[C@@H](O)[C@H](O)[C@H]1O)[C@H]1CC[C@]2(C)[C@@H]1[C@H](O)C[C@@H]1[C@@]3(C)CC[C@H](O)C(C)(C)[C@@H]3[C@@H](O[C@@H]3O[C@H](CO)[C@@H](O)[C@H](O)[C@H]3O[C@@H]3O[C@@H](C)[C@H](O)[C@@H](O)[C@H]3O)C[C@]12C` [Ginsenoside Re]: the IC50 in test [1] (setting [4]) is 81.3 ± 2.18 µM; in test [2] (setting [5]) it was 43.4 ± 3.11 µM.

Turning to `CC(C)=CCC[C@](C)(O[C@@H]1O[C@H](CO)[C@@H](O)[C@H](O)[C@H]1O)[C@H]1CC[C@]2(C)[C@@H]1[C@H](O)C[C@@H]1[C@@]3(C)CC[C@H](O)C(C)(C)[C@@H]3[C@@H](O[C@@H]3O[C@H](CO)[C@@H](O)[C@H](O)[C@H]3O)C[C@]12C` [Ginsenoside Rg1], the IC50 in test [1] (setting [4]) came to 49.5 ± 1.88 µM; in test [2] (setting [5]) it was 27.6 ± 2.12 µM.

On to `CC(C)=CC/C=C(\C)[C@H]1CC[C@]2(C)[C@@H]1[C@H](O)C[C@@H]1[C@@]3(C)CC[C@H](O[C@@H]4O[C@H](CO)[C@@H](O)[C@H](O)[C@H]4O[C@@H]4O[C@H](CO)[C@@H](O)[C@H](O)[C@H]4O)C(C)(C)[C@@H]3CC[C@]12C` [Ginsenoside Rg5], for which the IC50 in test [1] was 54.5 ± 1.22 µM; in test [2], 38.6 ± 2.91 µM.

Regarding `CC(=O)OC[C@H]1O[C@@H](O[C@H]2[C@H](O[C@H]3CC[C@@]4(C)C(CC[C@]5(C)C4C[C@@H](O)[C@@H]4C([C@](C)(CCC=C(C)C)O[C@@H]6O[C@H](CO[C@@H]7OC[C@H](O)[C@H](O)[C@H]7O)[C@@H](O)[C@H](O)[C@H]6O)CC[C@]45C)C3(C)C)O[C@H](CO)[C@@H](O)[C@@H]2O)[C@H](O)[C@@H](O)[C@@H]1O` (some centres unmarked) [Ginsenoside Rs1], the IC50 in test [1] (setting [4]) was 143 ± 3.77 µM; in test [2] (setting [5]), > 100 µM. Moreover, the “HRAR inhibitory activity (in words)” value in test [2] was “inactive”.

As for `CC(=O)OC[C@H]1O[C@@H](O[C@H]2[C@H](O[C@H]3CC[C@@]4(C)C(CC[C@]5(C)C4C[C@@H](O)[C@@H]4C([C@](C)(CCC=C(C)C)O[C@@H]6O[C@H](CO[C@@H]7O[C@@H](CO)[C@H](O)[C@H]7O)[C@@H](O)[C@H](O)[C@H]6O)CC[C@]45C)C3(C)C)O[C@H](CO)[C@@H](O)[C@@H]2O)[C@H](O)[C@@H](O)[C@@H]1O` (some centres unmarked) [Ginsenoside Rs2], the IC50 is 149 ± 4.22 µM in test [1] (setting [4]) and > 100 µM in test [2] (setting [5]). Further, the “HRAR inhibitory activity (in words)” value in test [2] is “inactive”.

For `O=c1c(O)c(-c2ccc(O)c(O)c2)oc2cc(O)cc(O)c12` [Quercetin, reference compound], in test [3], the “Sorbitol Content (mg)/Lens Wet Weight (g)” value is 0.22 ± 0.01 ^a mg/g. Also, the inhibition at 5 µg/mL in test [3] (Rattus norvegicus, 144 h) was 87.2 ± 3.91%.

Consider `O=C(O)Cn1c(=O)n(Cc2ccc(Br)cc2F)c(=O)c2ccc(Cl)cc21` [Zenaresta, Zenarestat, reference compound], for which the IC50 in test [2] was 0.69 ± 0.11 µM.
